Test systems include NCI-H23 lung; CCRF-CEM leukemia; OVCAR-3 ovarian; SNB-75 CNS; SK-MEL-2 melanoma; SF-268 CNS; RXF 393 renal; ACHN renal; EKVX NSCLC; UACC-62 melanoma; SF-295 CNS; M14 melanoma; 786-0 renal; PC-3 prostate; MDA-MB-231 breast; NCI/ADR-RES ovarian; SK-MEL-5 melanoma; SR leukemia; CAKI-1 renal; A498 renal.
Holding throughout (experiment): growth of human tumour cells (NCI), 48 h

These results are taken from PubChem BioAssay (NCI).

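Step 1: Grow cells in 96-well plates. Step 2: Expose to compound for 48 hours at 5 concentrations. Step 3: Interpolate endpoints linearly; if unreached, use highest concentration. TGI: total growth inhibition.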

`COc1ccc2c3c1OC1C34CCN(C)C(C2)C4=CC(I)C1(OC)OC` (centres undefined): the TGI in the assay on NCI-H23 lung worked out at 21.1 µM; with CCRF-CEM leukemia, 5.87 µM; with OVCAR-3 ovarian, 18.5 µM; with SNB-75 CNS it was 34.5 µM; with SK-MEL-2 melanoma, 30.3 µM; in the assay on SF-268 CNS, 42.8 µM. For the same compound, the TGI in the assay on RXF 393 renal was 23.1 µM; in the assay with ACHN renal, 23.4 µM; with EKVX NSCLC, 33.8 µM; in the assay on UACC-62 melanoma it was 28 µM; in the assay on SF-295 CNS, greater than 100 µM; with M14 melanoma, 29.6 µM. Further, the TGI in the assay on 786-0 renal is 14 µM; with PC-3 prostate, 23.2 µM; in the assay with MDA-MB-231 breast it was 36 µM; in the assay with NCI/ADR-RES ovarian, greater than 100 µM; with SK-MEL-5 melanoma, 25.6 µM; with SR leukemia it was 10.2 µM. The TGI came out at 25.6 µM in the assay with CAKI-1 renal and 56.7 µM with A498 renal.

Consider `CCN(CC)CCCNc1[nH]ncc2c(C)c3nc4ccc(OC)cc4c3cc12`, for which the TGI in the assay with NCI-H23 lung came to 1.97 µM; with CCRF-CEM leukemia, 2 µM; in the assay on OVCAR-3 ovarian, 2.99 µM; in the assay with SNB-75 CNS it was 2.1 µM; in the assay with SK-MEL-2 melanoma, 3.01 µM; in the assay on SF-268 CNS it was 3.52 µM. Further, the TGI in the assay with RXF 393 renal was determined as 3.37 µM; in the assay with ACHN renal, 5.95 µM; in the assay with EKVX NSCLC it was 10.9 µM; in the assay with UACC-62 melanoma, 2.74 µM; in the assay on SF-295 CNS, 6.48 µM; in the assay with M14 melanoma it was 3.26 µM. The TGI is 2.28 µM in the assay with 786-0 renal; 1.73 µM with PC-3 prostate; 2.65 µM with MDA-MB-231 breast; greater than 100 µM in the assay with NCI/ADR-RES ovarian; 2.83 µM in the assay on SK-MEL-5 melanoma; 1.76 µM in the assay on SR leukemia. Further, the results for the TGI with CAKI-1 renal and in the assay with A498 renal were 29.3 µM and 6.35 µM, respectively.

With `CN(C)c1cccc2c1C(=O)C=CC21CCc2ccc(N(C)C)c3c(N(C)C)ccc1c23` (centres undefined), the TGI in the assay with NCI-H23 lung was found to be 37.4 µM; in the assay with CCRF-CEM leukemia, 87.7 µM; with OVCAR-3 ovarian, 24.8 µM; in the assay with SNB-75 CNS, 19.2 µM; in the assay with SF-268 CNS it was 33.8 µM; with RXF 393 renal it was 20.8 µM. Further, the TGI in the assay on ACHN renal was 26.2 µM; in the assay with EKVX NSCLC, 63.1 µM; in the assay with UACC-62 melanoma it was 26.9 µM; with SF-295 CNS, 43.1 µM; with M14 melanoma it was 29.1 µM; in the assay on 786-0 renal, 26.1 µM. The TGI was 27.4 µM with PC-3 prostate; 31.2 µM in the assay on MDA-MB-231 breast; greater than 100 µM with NCI/ADR-RES ovarian; 30.1 µM in the assay on SK-MEL-5 melanoma; 56.5 µM in the assay on SR leukemia; 40 µM in the assay on CAKI-1 renal. In the assay with A498 renal, this compound yielded a TGI of 15.3 µM.

On to `COc1nc2c(c(=O)n1C)N=C(c1ccc(Cl)cc1)CC(c1ccccc1)N2` (centres undefined), for which the TGI in the assay on NCI-H23 lung was 69.1 µM; in the assay with CCRF-CEM leukemia, 69.3 µM; in the assay on OVCAR-3 ovarian, greater than 100 µM; with SNB-75 CNS, 46.7 µM; in the assay with SK-MEL-2 melanoma, 42.9 µM; in the assay with RXF 393 renal it was 55 µM. Further, the TGI was 54 µM in the assay on ACHN renal; 69.2 µM with EKVX NSCLC; 37.6 µM in the assay on UACC-62 melanoma; 57.6 µM in the assay with SF-295 CNS; greater than 100 µM in the assay with M14 melanoma; greater than 100 µM in the assay with 786-0 renal. Besides, the TGI with PC-3 prostate was greater than 100 µM; in the assay on MDA-MB-231 breast it was 53.7 µM; in the assay on NCI/ADR-RES ovarian it was greater than 100 µM; in the assay with SK-MEL-5 melanoma, 38.2 µM; in the assay with SR leukemia, greater than 100 µM; in the assay with CAKI-1 renal, 74.5 µM. Besides, the TGI in the assay on A498 renal was greater than 100 µM.

Turning to `CCN(CC)c1ccc2cc(C(=O)Nc3ccc(C)cc3)c(=N)oc2c1`, the TGI in the assay on NCI-H23 lung, in the assay on CCRF-CEM leukemia, in the assay with OVCAR-3 ovarian, in the assay on SNB-75 CNS, in the assay on SK-MEL-2 melanoma and in the assay on SF-268 CNS was greater than 100 µM throughout. Moreover, the TGI with RXF 393 renal, with ACHN renal, in the assay with EKVX NSCLC, in the assay with UACC-62 melanoma, with M14 melanoma and in the assay with 786-0 renal was greater than 100 µM throughout. Besides, the TGI in the assay on PC-3 prostate, in the assay with MDA-MB-231 breast, in the assay on NCI/ADR-RES ovarian, in the assay with SK-MEL-5 melanoma, with SR leukemia and in the assay with CAKI-1 renal was greater than 100 µM in each case. In the assay on A498 renal, this compound registered a TGI greater than 100 µM.

On to `O=C(Nc1nnc(-c2c(Cl)c(Cl)c(Cl)c(Cl)c2-c2nc3cc(C(=O)c4ccccc4)ccc3[nH]2)o1)c1ccc(Cl)cc1`, for which the TGI in the assay on NCI-H23 lung was greater than 100 µM; with CCRF-CEM leukemia it was greater than 100 µM; in the assay on OVCAR-3 ovarian it was 54.1 µM; with SNB-75 CNS, greater than 100 µM; with SK-MEL-2 melanoma it was greater than 100 µM; with RXF 393 renal it was greater than 100 µM. The TGI was greater than 100 µM in the assay with ACHN renal; greater than 100 µM in the assay on EKVX NSCLC; 42.4 µM in the assay on SF-295 CNS; greater than 100 µM in the assay on M14 melanoma; greater than 100 µM in the assay on 786-0 renal; greater than 100 µM in the assay with PC-3 prostate. In addition, the TGI in the assay with MDA-MB-231 breast was greater than 100 µM; in the assay on NCI/ADR-RES ovarian it was greater than 100 µM; with SK-MEL-5 melanoma, 39.9 µM; in the assay with SR leukemia, greater than 100 µM; in the assay with CAKI-1 renal, greater than 100 µM; with A498 renal, 43.4 µM.

Turning to `CN(C(=O)Cc1cc(Cl)c(Cl)cc1NC(=O)CN)[C@H]1CCCC[C@@H]1N1CCCC1`, the TGI in the assay with NCI-H23 lung is greater than 100 µM; with CCRF-CEM leukemia, 73.3 µM; in the assay with OVCAR-3 ovarian, greater than 100 µM; in the assay on SNB-75 CNS, 55.9 µM; with SK-MEL-2 melanoma, 35.7 µM; with SF-268 CNS it was greater than 100 µM. For the same compound, the TGI in the assay with RXF 393 renal was greater than 100 µM; in the assay on ACHN renal, greater than 100 µM; in the assay on EKVX NSCLC, greater than 100 µM; in the assay on UACC-62 melanoma it was 30.2 µM; in the assay with SF-295 CNS, 77.1 µM; in the assay with M14 melanoma it was 33.5 µM. For the same compound, the TGI in the assay with 786-0 renal was 38 µM; in the assay with PC-3 prostate, greater than 100 µM; with MDA-MB-231 breast it was 71.2 µM; with NCI/ADR-RES ovarian it was greater than 100 µM; in the assay with SR leukemia, 77.8 µM; with CAKI-1 renal it was greater than 100 µM. The same compound gave a TGI in the assay on A498 renal of 51.2 µM.
